From patent publication EP0356128A2, “3-(Aminopropyl)methyl phosphinic acid as a therapeutic agent” (SMITH KLINE & FRENCH LABORATORIES LIMITED, priority 1988, dated 1990)

Tests used:
GABAA receptor = assay: [3H]-GABA radioligand binding assay, GABAA binding (in the presence of baclofen); conditions: inhibition of specific GABAA binding to rat synaptic membranes; [³H]-GABA 10 nM, baclofen 100 µM; read-out: IC₅₀ (nM) GABAA
Procedure: Male rats were killed by decapitation.
The final tissue was resuspended in fresh buffer for assay and transferred in 0.8 ml aliquots to microtubes (0.5 - 1.0 mg protein.tube).

GABAB receptor = GABAB receptor (Rattus norvegicus, UniProt Q9Z0U4); assay: biochemical
Chain of GABAB receptor (Q9Z0U4 17-960 limits assumed): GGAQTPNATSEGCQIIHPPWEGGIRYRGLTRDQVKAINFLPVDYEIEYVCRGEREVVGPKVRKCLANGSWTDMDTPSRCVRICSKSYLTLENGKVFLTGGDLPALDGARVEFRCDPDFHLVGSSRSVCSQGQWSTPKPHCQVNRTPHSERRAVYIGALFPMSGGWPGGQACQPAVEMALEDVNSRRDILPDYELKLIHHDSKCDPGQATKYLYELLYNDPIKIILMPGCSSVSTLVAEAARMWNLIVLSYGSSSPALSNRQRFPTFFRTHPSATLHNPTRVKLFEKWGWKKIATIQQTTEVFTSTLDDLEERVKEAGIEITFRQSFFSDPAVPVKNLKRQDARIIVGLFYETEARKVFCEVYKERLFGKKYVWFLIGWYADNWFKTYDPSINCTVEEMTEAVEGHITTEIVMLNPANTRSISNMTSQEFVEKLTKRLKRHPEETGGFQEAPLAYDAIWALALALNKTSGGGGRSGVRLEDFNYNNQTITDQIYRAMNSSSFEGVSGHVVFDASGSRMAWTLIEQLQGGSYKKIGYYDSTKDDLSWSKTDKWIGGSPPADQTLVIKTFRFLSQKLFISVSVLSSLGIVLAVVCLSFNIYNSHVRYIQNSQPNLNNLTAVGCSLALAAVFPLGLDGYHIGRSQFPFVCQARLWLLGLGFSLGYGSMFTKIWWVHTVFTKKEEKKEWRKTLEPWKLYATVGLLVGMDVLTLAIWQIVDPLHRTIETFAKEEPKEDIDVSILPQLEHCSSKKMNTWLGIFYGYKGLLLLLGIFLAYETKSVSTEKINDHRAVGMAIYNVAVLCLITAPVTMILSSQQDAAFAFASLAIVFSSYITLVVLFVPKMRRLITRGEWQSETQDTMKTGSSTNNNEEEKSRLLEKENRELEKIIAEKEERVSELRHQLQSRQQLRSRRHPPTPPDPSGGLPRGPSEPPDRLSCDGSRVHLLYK
Chain of GABAB receptor (O88871 41-940 partner): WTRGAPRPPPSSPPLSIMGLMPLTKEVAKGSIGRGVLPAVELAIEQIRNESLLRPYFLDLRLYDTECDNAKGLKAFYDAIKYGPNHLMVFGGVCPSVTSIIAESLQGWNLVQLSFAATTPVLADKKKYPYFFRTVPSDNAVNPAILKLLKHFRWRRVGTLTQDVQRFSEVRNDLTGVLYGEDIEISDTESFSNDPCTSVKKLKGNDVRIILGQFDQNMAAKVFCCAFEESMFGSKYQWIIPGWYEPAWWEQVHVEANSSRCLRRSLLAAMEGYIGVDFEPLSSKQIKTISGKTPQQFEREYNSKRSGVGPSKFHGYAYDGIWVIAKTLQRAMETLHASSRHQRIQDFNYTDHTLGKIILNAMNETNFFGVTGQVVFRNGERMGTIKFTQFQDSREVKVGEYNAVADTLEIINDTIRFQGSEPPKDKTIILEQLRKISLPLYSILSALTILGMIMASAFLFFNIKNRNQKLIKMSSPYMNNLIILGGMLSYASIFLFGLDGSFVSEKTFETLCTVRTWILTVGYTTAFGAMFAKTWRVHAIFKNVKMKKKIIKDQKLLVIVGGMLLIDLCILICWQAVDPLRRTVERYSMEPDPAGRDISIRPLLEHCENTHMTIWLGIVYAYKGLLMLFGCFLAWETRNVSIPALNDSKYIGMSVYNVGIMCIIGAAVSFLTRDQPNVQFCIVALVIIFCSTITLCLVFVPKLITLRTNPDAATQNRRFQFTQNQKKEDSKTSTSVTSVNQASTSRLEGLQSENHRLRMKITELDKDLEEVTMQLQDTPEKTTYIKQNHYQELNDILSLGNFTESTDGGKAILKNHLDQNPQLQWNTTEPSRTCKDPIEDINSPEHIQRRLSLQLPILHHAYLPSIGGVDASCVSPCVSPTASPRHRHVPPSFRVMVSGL
Procedure: Male rats were killed by decapitation. […] The homogenate was centrifuged at 1000 g to give a crude nuclear pellet (P₁) and a supernatant fraction enriched in myelin, synaptosomes and mitochrondria. The supernatant was collected and recentrifuged for 20 minutes at 20,000 g. The resulting pellet (P₂) was lysed by resuspension in distilled water and the mixture centrifuged for 20 minutes at 8,000 g. The supernatant was used to rinse off the upper layer of the pellet with the aid of a Pasteur pipette. The combined suspension was centrifuged for 20 minutes at 48,000 g. The final crude synaptic membranes were washed twice with distilled water and were either resuspended in buffer for further washing prior to use as fresh tissue or were stored frozen at -20°C. […]
[³H]-GABA (10 nM final concentrations 65 Ci/mmol) was added to each tube with or without varying concentrations of unlabelled test compound (final volume 1.0 ml). […] GABAB binding was determined by using ³H-GABA in the presence of isoguvacine (40 µM), a GABAA receptor ligand. […]
Non-specific binding was subtracted from the total amount of radioactivity bound in the absence of any drug to yield the amount of ligand specifically bound. The amount of radioactivity specifically bound at a given concentration of non-radioactive drug was expressed as a percentage of the total ligand specifically bound.

| Compound | IC50 (GABAA receptor) | IC50 (GABAB receptor) |
| --- | --- | --- |
| NCCC[PH](=O)O [3-aminopropyl phosphinic acid] | 420 nM | 1 nM |
| CP(=O)(O)CCCN [Example 1, 3-(aminopropyl)methyl phosphinic acid] | 23000 nM |  |
